Data: patent US6825172B2, “3-descladinosyl-6-O-carbamoyl and 6-O-carbonoyl macrolide antibacterial agents” (Janssen Pharmaceutica, NV, priority 2002, dated 2004)
In brackets after ≈: the same amount, converted by molar mass. Where two headings read alike, the source gives them in different places.

Tests used:
Experiment in all cases: MIC, microdilution broth method (NCCLS)
Format in all cases: cell-based
[1] = system: E. coli OC2605; conditions: Escherichia coli
Method: (§1) Minimal inhibitory concentration (MIC) has been an indicator of in vitro antibacterial activity widely used in the art. The in vitro antimicrobial activity of the compounds was determined by the microdilution broth method following the test method from the National Committee for Clinical Laboratory Standards (NCCLS). This method is described in the NCCLS Document M7-A4, Vol.17, No.2, “Methods for Dilution Antimicrobial Susceptibility Test for Bacteria that Grow Aerobically—Fourth Edition”, which is incorporated herein by reference.
(§2) In this method two-fold serial dilutions of drug in cation adjusted Mueller-Hinton broth are added to wells in microdilution trays. The test organisms are prepared by adjusting the turbidity of actively growing broth cultures so that the final concentration of test organism after it is added to the wells is approximately 5×10^4 CFU/well.
(§3) Following inoculation of the microdilution trays, the trays are incubated at 35 °C for 16-20 hours and then read. […] The amount of growth in the wells containing the test compound is compared with the amount of growth in the growth-control wells (no test compound) used in each tray. As set forth in Table 1, compounds of the present invention were tested against a variety of Gram positive and Gram negative pathogenic bacteria resulting in a range of activities depending on the organism tested.

[2] = system: H. influenzae ATCC49247; conditions: Haemophilus influenzae, read-out: MIC Values, E: H. influenzae ATCC49247
Method: as §1, §2, §3

[3] = system: S. aureus ATCC29213; conditions: Staphylococcus aureus, read-out: MIC Values, B: S. aureus ATCC29213
Method: as §1, §2, §3

[4] = system: S. pneumoniae ATCC49619; conditions: Streptococcus pneumoniae, read-out: MIC Values, D: S. pneumoniae ATCC49619
Method: as §1, §2, §3

[5] = system: E. faecalis ATCC29212; conditions: Enterococcus faecalis, read-out: MIC Values, C: E. faecalis ATCC29212
Method: as §1, §2, §3

[6] = Table 2, 3,6-Dicarbamoyl Macrolide Derivatives, read-out: MIC Values, A: E. coil OC2605
[7] = Table 2, 3,6-Dicarbamoyl Macrolide Derivatives
[8] = Table 1, 6-Carbamoyl-3-Acyl Macrolide Derivatives, read-out: MIC Values, A: E. coli OC2605
[9] = Table 1, 6-Carbamoyl-3-Acyl Macrolide Derivatives

| Structure (SMILES) | MIC [1, 6] [µg/mL] | MIC [2, 7] [µg/mL] | MIC [3, 7] [µg/mL] | MIC [4, 7] [µg/mL] | MIC [5, 7] [µg/mL] | MIC [1, 8] [µg/mL] | MIC [2, 9] [µg/mL] | MIC [3, 9] [µg/mL] | MIC [4, 9] [µg/mL] | MIC [5, 9] [µg/mL] |
| --- | --- | --- | --- | --- | --- | --- | --- | --- | --- | --- |
| CCC(=O)O[C@H]1[C@H](C)[C@@H](O[C@@H]2O[C@H](C)C[C@H](N(C)C)[C@H]2O)[C@](C)(OC(=O)NC/C=C/c2ccc(-c3ncccn3)cc2)C[C@@H](C)C(=O)[C@H](C)[C@H]2NC(=O)O[C@]2(C)[C@@H](CC)OC(=O)[C@@H]1C [Compound 14] | – | – | – | – | – | 16 (≈ 17.9 µM) | 4 (≈ 4.47 µM) | 0.25 (≈ 0.28 µM) | 0.06 (≈ 0.0671 µM) | 0.25 (≈ 0.28 µM) |
| CC[C@H]1OC(=O)[C@H](C)[C@@H](OC(=O)C(C)C)[C@H](C)[C@@H](O[C@@H]2O[C@H](C)C[C@H](N(C)C)[C@H]2O)[C@](C)(OC(=O)NC/C=C/c2ccc(-c3ncccn3)cc2)C[C@@H](C)C(=O)[C@H](C)[C@H]2NC(=O)O[C@@]21C [Compound 1, Propanoic acid, 2-methyl-, (3aS,4R,7R,8S,9S,10R, 11R,13R,15R,15aR)-4-ethyltetradecahydro-3a,7,9,11,13,15-hexamethyl-2,6,14-trioxo-11-[[[[(2E)-3-[4-(2-pyrimidinyl)phenyl]-2-propenyl]amino]carbonyl]oxy]-10-[[3,4,6-trideoxy-3-(dimethylamino)-β-D-xylo-hexopyranosyl]oxy]-2H-oxacyclotetradecino[4,3-d]oxazol-8-yl ester] | – | – | – | – | – | 16 (≈ 17.6 µM) | 1 (≈ 1.1 µM) | 0.5 (≈ 0.551 µM) | 0.06 (≈ 0.0661 µM) | 0.25 (≈ 0.275 µM) |
| CC[C@H]1OC(=O)[C@H](C)[C@@H](OC(=O)Nc2ccc(F)cc2)[C@H](C)[C@@H](O[C@@H]2O[C@H](C)C[C@H](N(C)C)[C@H]2O)[C@](C)(OC(=O)NC/C=C/c2ccc(-c3ncccn3)cc2)C[C@@H](C)C(=O)[C@H](C)[C@H]2NC(=O)O[C@@]21C [Compound 52] | > 16 | 4 (≈ 4.1 µM) | 1 (≈ 1.03 µM) | 0.12 (≈ 0.123 µM) | 1 (≈ 1.03 µM) | – | – | – | – | – |
| CC[C@H]1OC(=O)[C@H](C)[C@@H](OC(=O)C(C)C)[C@H](C)[C@@H](O[C@@H]2O[C@H](C)C[C@H](N(C)C)[C@H]2O)[C@](C)(OC(=O)NC/C=C/C=C/c2ccccn2)C[C@@H](C)C(=O)[C@H](C)[C@H]2NC(=O)O[C@@]21C [Compound 26] | – | – | – | – | – | 16 (≈ 18.7 µM) | 2 (≈ 2.33 µM) | 1 (≈ 1.17 µM) | 0.06 (≈ 0.07 µM) | 0.25 (≈ 0.292 µM) |
| CC[C@H]1OC(=O)[C@H](C)[C@@H](OC(=O)CC2CC2)[C@H](C)[C@@H](O[C@@H]2O[C@H](C)C[C@H](N(C)C)[C@H]2O)[C@](C)(OC(=O)NC/C=C/c2ccc(-c3ncccn3)cc2)C[C@@H](C)C(=O)[C@H](C)[C@H]2NC(=O)O[C@@]21C [Compound 13] | – | – | – | – | – | > 16 | 8 (≈ 8.69 µM) | 0.5 (≈ 0.543 µM) | 0.06 (≈ 0.0652 µM) | 0.5 (≈ 0.543 µM) |
| CC[C@H]1OC(=O)[C@H](C)[C@@H](OC(=O)Cc2cccnc2)[C@H](C)[C@@H](O[C@@H]2O[C@H](C)C[C@H](N(C)C)[C@H]2O)[C@](C)(OC(=O)NC/C=C/c2ccc(Br)nc2)C[C@@H](C)C(=O)[C@H](C)[C@H]2NC(=O)O[C@@]21C [Compound 28] | – | – | – | – | – | 8 (≈ 8.34 µM) | 1 (≈ 1.04 µM) | 0.5 (≈ 0.521 µM) | < 0.015 | 0.25 (≈ 0.261 µM) |
| CC[C@H]1OC(=O)[C@H](C)[C@@H](OC(=O)Cc2cccnc2)[C@H](C)[C@@H](O[C@@H]2O[C@H](C)C[C@H](N(C)C)[C@H]2O)[C@](C)(OC(=O)NC/C=C/C=C/c2cccnc2)C[C@@H](C)C(=O)[C@H](C)[C@H]2NC(=O)O[C@@]21C [Compound 23] | – | – | – | – | – | 16 (≈ 17.7 µM) | 4 (≈ 4.41 µM) | 1 (≈ 1.1 µM) | 0.03 (≈ 0.0331 µM) | 0.25 (≈ 0.276 µM) |
| CC[C@H]1OC(=O)[C@H](C)[C@@H](OC(=O)Cc2ccncc2)[C@H](C)[C@@H](O[C@@H]2O[C@H](C)C[C@H](N(C)C)[C@H]2O)[C@](C)(OC(=O)NC/C=C/c2ccc(-c3ncccn3)cc2)C[C@@H](C)C(=O)[C@H](C)[C@H]2NC(=O)O[C@@]21C [Compound 8] | – | – | – | – | – | 16 (≈ 16.7 µM) | 2 (≈ 2.09 µM) | 0.5 (≈ 0.522 µM) | 0.06 (≈ 0.0627 µM) | 0.25 (≈ 0.261 µM) |
| CC[C@H]1OC(=O)[C@H](C)[C@@H](OC(=O)Cc2ccccn2)[C@H](C)[C@@H](O[C@@H]2O[C@H](C)C[C@H](N(C)C)[C@H]2O)[C@](C)(OC(=O)NC/C=C/c2cccnc2)C[C@@H](C)C(=O)[C@H](C)[C@H]2NC(=O)O[C@@]21C [Compound 20] | – | – | – | – | – | 8 (≈ 9.09 µM) | 1 (≈ 1.14 µM) | 0.5 (≈ 0.568 µM) | 0.03 (≈ 0.0341 µM) | 0.25 (≈ 0.284 µM) |
| CC[C@H]1OC(=O)[C@H](C)[C@@H](OC(=O)NC2CCCCC2)[C@H](C)[C@@H](O[C@@H]2O[C@H](C)C[C@H](N(C)C)[C@H]2O)[C@](C)(OC(=O)NC/C=C/c2ccc(-c3ncccn3)cc2)C[C@@H](C)C(=O)[C@H](C)[C@H]2NC(=O)O[C@@]21C [Compound 51] | > 16 | 2 (≈ 2.08 µM) | 1 (≈ 1.04 µM) | 0.12 (≈ 0.125 µM) | 0.5 (≈ 0.519 µM) | – | – | – | – | – |

Results, then the molecule that gave them:

| MIC [1, 6] [µg/mL] | MIC [2, 7] [µg/mL] | MIC [3, 7] [µg/mL] | MIC [4, 7] [µg/mL] | MIC [5, 7] [µg/mL] | MIC [1, 8] [µg/mL] | MIC [2, 9] [µg/mL] | MIC [3, 9] [µg/mL] | MIC [4, 9] [µg/mL] | MIC [5, 9] [µg/mL] | Structure (SMILES) |
| --- | --- | --- | --- | --- | --- | --- | --- | --- | --- | --- |
| > 16 | 8 (≈ 8.13 µM) | 0.5 (≈ 0.508 µM) | 0.06 (≈ 0.061 µM) | 0.5 (≈ 0.508 µM) | – | – | – | – | – | CC[C@H]1OC(=O)[C@H](C)[C@@H](OC(=O)N2Cc3cccnc3C2)[C@H](C)[C@@H](O[C@@H]2O[C@H](C)C[C@H](N(C)C)[C@H]2O)[C@](C)(OC(=O)NC/C=C/c2ccc(-c3ncccn3)cc2)C[C@@H](C)C(=O)[C@H](C)[C@H]2NC(=O)O[C@@]21C [Compound 67] |
| > 16 | 8 (≈ 8 µM) | 1 (≈ 1 µM) | 0.06 (≈ 0.06 µM) | 0.5 (≈ 0.5 µM) | – | – | – | – | – | CC[C@H]1OC(=O)[C@H](C)[C@@H](OC(=O)N(CC)Cc2cccnc2)[C@H](C)[C@@H](O[C@@H]2O[C@H](C)C[C@H](N(C)C)[C@H]2O)[C@](C)(OC(=O)NC/C=C/c2ccc(-c3ncccn3)cc2)C[C@@H](C)C(=O)[C@H](C)[C@H]2NC(=O)O[C@@]21C [Compound 61] |
| > 16 | 16 (≈ 15.6 µM) | 2 (≈ 1.95 µM) | 0.5 (≈ 0.487 µM) | 2 (≈ 1.95 µM) | – | – | – | – | – | CC[C@H]1OC(=O)[C@H](C)[C@@H](OC(=O)Nc2ccc(Cl)c(Cl)c2)[C@H](C)[C@@H](O[C@@H]2O[C@H](C)C[C@H](N(C)C)[C@H]2O)[C@](C)(OC(=O)NC/C=C/c2ccc(-c3ncccn3)cc2)C[C@@H](C)C(=O)[C@H](C)[C@H]2NC(=O)O[C@@]21C [Compound 54] |
| 16 (≈ 17.6 µM) | 4 (≈ 4.4 µM) | 0.5 (≈ 0.55 µM) | 0.03 (≈ 0.033 µM) | 0.25 (≈ 0.275 µM) | – | – | – | – | – | CC[C@H]1OC(=O)[C@H](C)[C@@H](OC(=O)N(C)C)[C@H](C)[C@@H](O[C@@H]2O[C@H](C)C[C@H](N(C)C)[C@H]2O)[C@](C)(OC(=O)NC/C=C/c2ccc(-c3ncccn3)cc2)C[C@@H](C)C(=O)[C@H](C)[C@H]2NC(=O)O[C@@]21C [Compound 55] |
| 16 (≈ 17.1 µM) | 4 (≈ 4.27 µM) | 0.5 (≈ 0.534 µM) | 0.06 (≈ 0.064 µM) | 0.5 (≈ 0.534 µM) | – | – | – | – | – | CC[C@H]1OC(=O)[C@H](C)[C@@H](OC(=O)N(C)C(C)C)[C@H](C)[C@@H](O[C@@H]2O[C@H](C)C[C@H](N(C)C)[C@H]2O)[C@](C)(OC(=O)NC/C=C/c2ccc(-c3ncccn3)cc2)C[C@@H](C)C(=O)[C@H](C)[C@H]2NC(=O)O[C@@]21C [Compound 57] |
| > 16 | 8 (≈ 8.11 µM) | 1 (≈ 1.01 µM) | 0.25 (≈ 0.254 µM) | 1 (≈ 1.01 µM) | – | – | – | – | – | CC[C@H]1OC(=O)[C@H](C)[C@@H](OC(=O)N(CC)c2cccnc2)[C@H](C)[C@@H](O[C@@H]2O[C@H](C)C[C@H](N(C)C)[C@H]2O)[C@](C)(OC(=O)NC/C=C/c2ccc(-c3ncccn3)cc2)C[C@@H](C)C(=O)[C@H](C)[C@H]2NC(=O)O[C@@]21C [Compound 65] |
